Source: paper PMC10847513, “Plastid ancestors lacked a complete Entner-Doudoroff pathway, limiting plants to glycolysis and the pentose phosphate pathway” (Nature Communications, 2024)
Values belong to the compound of their own block, whether it stands above or below them.

Experiments:
E. coli EDD = target: T1, E. coli EDD (Escherichia coli, UniProt P0ADF6); assay: LCMS/MS product assay; assay type: biochemical; conditions: pH 8.0, 30 °C, 100 mM Tris-HCl, 10 mM MgCl2, 1 mM DTT; 4.4 mM substrate; dehydration to KDPG
T1 construct: full length, His-tagged (pET28), E. coli BL21(DE3), Ni-NTA
T1 sequence (P0ADF6 1-603): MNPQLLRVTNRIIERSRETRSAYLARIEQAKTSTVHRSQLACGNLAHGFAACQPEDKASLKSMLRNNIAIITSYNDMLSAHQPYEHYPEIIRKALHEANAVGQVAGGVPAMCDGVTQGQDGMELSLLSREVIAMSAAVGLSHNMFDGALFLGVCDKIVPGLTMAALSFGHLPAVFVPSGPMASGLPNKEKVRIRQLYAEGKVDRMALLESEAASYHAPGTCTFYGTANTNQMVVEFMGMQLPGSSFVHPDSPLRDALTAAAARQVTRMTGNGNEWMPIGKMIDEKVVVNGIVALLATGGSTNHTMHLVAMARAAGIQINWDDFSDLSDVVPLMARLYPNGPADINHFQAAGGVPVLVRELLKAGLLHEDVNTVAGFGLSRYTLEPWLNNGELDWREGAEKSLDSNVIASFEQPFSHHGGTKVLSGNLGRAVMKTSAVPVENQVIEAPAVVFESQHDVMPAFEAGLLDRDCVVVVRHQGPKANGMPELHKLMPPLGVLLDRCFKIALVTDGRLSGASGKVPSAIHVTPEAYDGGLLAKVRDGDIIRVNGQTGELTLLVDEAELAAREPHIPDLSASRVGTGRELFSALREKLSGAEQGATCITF

[1] = target: T2, GmEDA (soybean KDPG aldolase, pseudomature) (Glycine max, UniProt K7LFS1); assay: LCMS/MS product assay, Lineweaver-Burk; assay type: biochemical; conditions: pH 8.0, 30 °C, 50 mM KH2PO4, 100 mM NaCl, 1 mM DTT; substrate 0.25-1 mM; aldol cleavage
T2 construct: gene LOC100800025
T2 sequence (K7LFS1 1-256): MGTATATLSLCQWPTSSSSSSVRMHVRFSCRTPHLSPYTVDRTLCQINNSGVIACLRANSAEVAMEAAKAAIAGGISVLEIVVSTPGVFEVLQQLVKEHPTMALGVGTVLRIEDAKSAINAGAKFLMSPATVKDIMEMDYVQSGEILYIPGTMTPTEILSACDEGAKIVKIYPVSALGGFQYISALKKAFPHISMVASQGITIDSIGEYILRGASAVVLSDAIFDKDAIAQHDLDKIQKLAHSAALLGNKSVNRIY

E. coli DHAD = target: T3, E. coli DHAD (Escherichia coli, UniProt P05791); assay: LCMS/MS product assay; assay type: biochemical; conditions: pH 8.0, 30 °C, 100 mM Tris-HCl, 10 mM MgCl2, 1 mM DTT; 4.4 mM substrate; dehydration to 2-ketoisovalerate
T3 construct: gene ilvD; full length, His-tagged (pET28), E. coli BL21(DE3), Ni-NTA

E. coli EDA = E. coli EDA (Escherichia coli, UniProt P0A955); conditions: pH 8.0, 30 °C, 50 mM KH2PO4, 100 mM NaCl, 1 mM DTT; aldol cleavage to GAP and pyruvate
E. coli EDA, sequence (P0A955 whole entry): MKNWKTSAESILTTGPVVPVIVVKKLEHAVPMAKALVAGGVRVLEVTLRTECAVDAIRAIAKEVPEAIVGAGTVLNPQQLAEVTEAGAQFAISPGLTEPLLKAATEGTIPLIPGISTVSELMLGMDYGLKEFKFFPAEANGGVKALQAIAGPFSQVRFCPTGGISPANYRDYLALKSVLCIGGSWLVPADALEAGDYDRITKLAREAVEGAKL

T3 sequence (P05791 2-616): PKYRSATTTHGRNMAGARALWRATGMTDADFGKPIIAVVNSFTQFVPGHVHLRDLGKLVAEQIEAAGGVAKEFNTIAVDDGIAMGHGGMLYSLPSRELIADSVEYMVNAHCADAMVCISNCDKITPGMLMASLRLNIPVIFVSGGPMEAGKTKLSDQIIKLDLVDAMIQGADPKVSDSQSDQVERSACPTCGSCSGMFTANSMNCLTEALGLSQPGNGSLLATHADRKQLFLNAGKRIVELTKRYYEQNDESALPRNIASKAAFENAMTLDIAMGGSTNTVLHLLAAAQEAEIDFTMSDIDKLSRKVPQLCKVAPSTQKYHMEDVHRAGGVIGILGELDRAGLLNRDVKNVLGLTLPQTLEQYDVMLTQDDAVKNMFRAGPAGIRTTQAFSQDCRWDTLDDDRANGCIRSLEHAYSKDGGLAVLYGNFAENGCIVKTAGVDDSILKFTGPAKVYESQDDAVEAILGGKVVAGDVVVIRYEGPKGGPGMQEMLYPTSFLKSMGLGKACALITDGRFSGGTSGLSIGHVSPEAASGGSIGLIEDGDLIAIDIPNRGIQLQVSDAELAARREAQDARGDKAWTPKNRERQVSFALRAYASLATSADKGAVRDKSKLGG

Compound: O=C(O)[C@H](O)[C@@H](O)[C@H](O)[C@H](O)COP(=O)(O)O [6-PG]
LCMS/MS product assay (E. coli EDD): E. coli EDD catalyzed the expected dehydration of 6-PG to KDPG

Km [1]: 1260 µM
Compound: O=P(O)(O)OC[C@H]1OC(O)(COP(=O)(O)O)[C@@H](O)[C@@H]1O (stereo partly drawn) [D-fructose-1,6-bisphosphate]

Compound: CC(C)(O)[C@@H](O)C(=O)O [DIV]
LCMS/MS product assay (E. coli DHAD): soybean and E. coli DHAD both converted DIV to its corresponding dehydration product

Km [1]: 310 µM
Compound: O=C(O)C(=O)C[C@H](O)[C@H](O)COP(=O)(O)O [KDPG]
LCMS/MS and GC-MS product assay (E. coli EDA): enzymatic assay of soybean and E. coli EDA when KDPG was supplied as substrate
